Data reported in PubChem BioAssay AID1645862 (Buhrlage Lab, Dana-Farber Cancer Institute and Novartis …, 2021).
Calls of active or inactive are those of the source. The rule behind the calls is not given here.

molecular target: Ubiquitin carboxyl-terminal hydrolase 8 (Homo sapiens) (UniProt P40818); assay: Ubiquitin-specific protease 8 inhibitors, concentration-effect, biochemical, validation of initial actives (AID 1645862); conditions: recombinant USP8 deubiquitinase activity assay;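 note: potency reflects inhibition of USP8 cleavage of a ubiquitin rhodamine substrate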
Sequence (P40818 whole entry, looked up): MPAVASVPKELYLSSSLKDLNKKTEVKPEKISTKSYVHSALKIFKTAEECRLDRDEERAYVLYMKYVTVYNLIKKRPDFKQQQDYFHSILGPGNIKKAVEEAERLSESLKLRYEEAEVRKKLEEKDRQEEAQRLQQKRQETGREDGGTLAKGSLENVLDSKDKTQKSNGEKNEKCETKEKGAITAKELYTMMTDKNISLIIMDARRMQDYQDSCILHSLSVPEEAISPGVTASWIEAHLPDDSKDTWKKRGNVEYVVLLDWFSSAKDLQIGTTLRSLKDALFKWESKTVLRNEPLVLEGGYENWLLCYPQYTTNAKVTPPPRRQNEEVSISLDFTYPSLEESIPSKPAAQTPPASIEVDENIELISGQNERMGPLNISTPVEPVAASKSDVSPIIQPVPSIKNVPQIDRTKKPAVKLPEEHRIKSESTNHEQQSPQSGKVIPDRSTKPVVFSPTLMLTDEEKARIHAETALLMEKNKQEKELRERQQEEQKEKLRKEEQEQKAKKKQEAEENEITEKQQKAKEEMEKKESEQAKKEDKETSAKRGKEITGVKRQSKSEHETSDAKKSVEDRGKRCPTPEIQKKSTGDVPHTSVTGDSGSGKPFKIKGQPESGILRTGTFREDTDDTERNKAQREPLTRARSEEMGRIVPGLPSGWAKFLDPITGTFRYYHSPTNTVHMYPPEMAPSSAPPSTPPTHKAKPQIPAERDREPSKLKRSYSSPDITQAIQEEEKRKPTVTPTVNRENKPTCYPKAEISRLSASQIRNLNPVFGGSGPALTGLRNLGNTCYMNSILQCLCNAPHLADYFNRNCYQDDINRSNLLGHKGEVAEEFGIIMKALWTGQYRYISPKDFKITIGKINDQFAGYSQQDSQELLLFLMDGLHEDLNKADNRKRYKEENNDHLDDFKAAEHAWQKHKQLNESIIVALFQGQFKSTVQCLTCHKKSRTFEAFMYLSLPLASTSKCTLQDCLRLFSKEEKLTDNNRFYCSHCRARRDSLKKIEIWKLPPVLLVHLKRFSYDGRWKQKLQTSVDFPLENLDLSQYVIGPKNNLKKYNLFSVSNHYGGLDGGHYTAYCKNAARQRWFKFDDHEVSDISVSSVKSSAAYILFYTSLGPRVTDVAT

| Compound | IC50 |
| --- | --- |
| O=C(c1ccc(Cl)cc1)N(c1ccccn1)C1CCCCC1 | > 40 µM (inactive) |
| CSc1cccc(C(=O)Nc2ccc(-c3nc4ccccc4[nH]3)cc2)c1 | > 40 µM (inactive) |
| COc1ccccc1CNC(=O)C1c2ccccc2C(=O)N1Cc1ccccc1C (stereo not drawn) | > 40 µM (inactive) |
| CCOc1ccc2c(c1)c(=O)c(C(=O)c1ccccc1)cn2CC(=O)Nc1ccc(Cl)cc1 | 32.2 µM |
| CCc1cccc(NC(=O)Cc2nnc3ccc(-c4nc(C)no4)cn23)c1 | > 40 µM (inactive) |
| Cn1c(=O)n(CCc2ccccc2)c(=O)c2c1nc1n2CCN1Cc1ccccc1 | > 40 µM (inactive) |
| O=C(OC1CSc2nc3ccccc3n2C1)c1ccc([N+](=O)[O-])o1 (stereo not drawn) | 21.4 µM |
| Cc1ccc2[nH]c(=O)c(-c3nc4ccc(C)cn4c3NCc3ccc(F)cc3)cc2c1 | > 40 µM (inactive) |
| Cc1cccc(N2C(=O)/C(=C\c3ccc4c(c3)OCCO4)c3ccccc3C2=O)c1 | > 40 µM (inactive) |
| COc1ccc(CCNC(=O)CSc2cn(CCNC(=O)c3ccccc3C)c3ccccc23)cc1OC | > 40 µM (inactive) |
| COc1ccc(-c2cc3c(=O)n(CC(=O)NCc4ccccc4)ncn3n2)cc1 | > 40 µM (inactive) |
| COc1ccc(NC(=O)Cn2cc(C(=O)c3ccc(Cl)cc3)c(=O)c3cc(F)ccc32)cc1 | > 40 µM (inactive) |
| COc1cccc(C(=O)Cn2c(=O)n(CCCC(=O)NCc3ccco3)c(=O)c3ccc(Cl)cc32)c1 | > 40 µM (inactive) |
| O=C(COC(=O)C(Cc1c[nH]c2ccccc12)NC(=O)c1ccccc1Cl)Nc1ccc([N+](=O)[O-])cc1C(F)(F)F (stereo not drawn) | > 40 µM (inactive) |
| COc1c(C)c(OC(=O)c2c(C)c(C)c(OC(=O)c3c(C)c(C)c(O)c(C)c3O)c(C)c2OC)c(C)c(C)c1C(=O)O | > 40 µM (inactive) |
| Cc1cccc(NC(=O)Nc2ccc(C)n(CC(=O)Nc3ccc(C)c(C)c3)c2=O)c1 | > 40 µM (inactive) |
| CC(C)(C)c1ccc(C2CC(=O)C3=C(C2)Nc2ccccc2N(C(=O)CCC(=O)O)C3c2cccc([N+](=O)[O-])c2)cc1 (stereo not drawn) | > 40 µM (inactive) |
| CSc1ccccc1C(=O)Nc1sc2c(c1C(N)=O)CCC(C)C2 (stereo not drawn) | > 40 µM (inactive) |
| O=C(Nc1ccc(F)cc1F)NC1CCN(c2ccccc2)C1=O (stereo not drawn) | > 40 µM (inactive) |
| CCCn1c(=O)c(-c2ccc(C(=O)NCc3ccc(OC)cc3)cc2)nc2cccnc21 | > 40 µM (inactive) |
| C[C@@H]1OC2=C(C(=O)c3cccc(O)c3C2=O)[C@H](O)[C@@H]1O | 0.825 µM |
| Cc1cc(Cl)ccc1NC(=O)c1cc(-c2ccncc2)n[nH]1 | > 40 µM (inactive) |

| Compound | IC50 |
| --- | --- |
| COc1ccc(NC(=O)Cn2c(=O)n(CCCCC(=O)NCc3ccco3)c(=O)c3ccccc32)cc1Cl | > 40 µM (inactive) |
| O=C(Nc1ccc(-c2nc3ccccc3o2)cc1)c1ccc(S(=O)(=O)N2CCc3ccccc3C2)cc1 | > 40 µM (inactive) |
| COc1ccc(CCC(=O)Nc2nnc(C3CC(=O)N(c4ccc(C)cc4)C3)s2)cc1 (stereo not drawn) | > 40 µM (inactive) |
| O=C(NCCc1cccnc1)c1ccn(-c2ccc3ccccn23)n1 | > 40 µM (inactive) |
| COC(=O)c1ccc(C2c3[nH]c4ccccc4c3C[C@@H]3C(=O)N(c4ccc5c(c4)OCCO5)C(=O)N23)cc1 (stereo partly drawn) | > 40 µM (inactive) |
| COc1ccc(C(=O)Nc2ccccc2C(=O)NC(Cc2ccc(O)cc2)C(=O)NNC(=O)c2ccccc2Cl)cc1 (stereo not drawn) | > 40 µM (inactive) |
| CC(=O)c1ccc(NC(=O)CSc2nc(-c3ccccc3)nc3c2COC(C)(C)C3)cc1 | > 40 µM (inactive) |
| CCc1ccc(NC(=O)Cc2nnc3cc(-c4nc(C)no4)ccn23)cc1 | 19.6 µM |
| COc1cc(C(=O)Nc2ccc(C#N)cc2)ccc1OCC(=O)Nc1ccccc1C(F)(F)F | > 40 µM (inactive) |
| O=C(Cn1cc(C(=O)c2ccc(F)cc2)c(=O)c2ccccc21)Nc1ccc2c(c1)OCO2 | > 40 µM (inactive) |
| COc1ccccc1NC(=O)C1=C(C)Nc2nc(SCc3ccccc3F)nn2C1c1ccccn1 (stereo not drawn) | > 40 µM (inactive) |
| CCOc1ccc(C2/C(=C(\O)c3ccccc3)C(=O)C(=O)N2c2nc3ccc(F)cc3s2)cc1 (stereo not drawn) | > 40 µM (inactive) |
| CCC(C(=O)C(C)C(O)C(C)CCc1ccc(C)c(O)c1C(=O)O)C1OC(CC)(C2CCC(O)(CC)C(C)O2)CC1C (stereo not drawn) | > 40 µM (inactive) |
| CCOc1ccc(NC(=O)Cn2c(=O)n(CCCCCC(=O)NCc3ccc(F)cc3)c(=O)c3sccc32)cc1 | > 40 µM (inactive) |
| O=C(Cn1cnc(-c2ccccc2)cc1=O)Nc1ccc(Oc2ccccc2)cc1 | > 40 µM (inactive) |
| COc1ccc(N/C=C/c2onc(C)c2[N+](=O)[O-])c(OC)c1 | > 40 µM (inactive) |
| CCn1c(SCC(=O)Nc2ccc(C)c(Cl)c2)nnc1-c1ccc2c(c1)OCCO2 | > 40 µM (inactive) |
| C[C@H](Cc1cc2c(cc1O)OCO2)[C@@H](C)Cc1cc2c(cc1O)OCO2 | 33.2 µM |
| Cc1ncc(CO)c2c1Oc1nc(-c3cccc(Cl)c3)nc(SCC(=O)N3CCCCC3)c1C2 | > 40 µM (inactive) |
| Cc1nnc(-c2ccc3ccn(CC(=O)N4CCN(c5ccccc5)CC4)c3c2)o1 | > 40 µM (inactive) |
| N#C/C(=C\c1ccccc1F)c1nnc(N)s1 | > 40 µM (inactive) |
| Cc1ccc(NC(=O)Nc2ccc(C)n(CC(=O)Nc3ccc(C)cc3C)c2=O)cc1 | 26 µM |

| Compound | IC50 |
| --- | --- |
| O=C(Nc1ccccc1)Nc1ccc(F)c(-c2nnc(-c3ccccc3)o2)c1 | > 40 µM (inactive) |
| Cc1ccc(NC(=O)Nc2nnc(CC(=O)NCc3ccccc3)s2)c(Cl)c1 | > 40 µM (inactive) |
| Fc1ccccc1-c1nc2c3cnn(-c4ccccc4)c3ncn2n1 | > 40 µM (inactive) |
| Cc1[nH]n2c(=O)c(Cl)c(-c3ccccc3)nc2c1-c1ccccc1 | > 40 µM (inactive) |
| COc1ccc(/C=C/C(=O)Nc2cccc(S(=O)(=O)Nc3ccccc3Cl)c2)c(OC)c1 | > 40 µM (inactive) |
| O=C(NCC1(c2ccccc2)CCC1)c1nc2n(n1)-c1ccccc1S(=O)(=O)N2 | > 40 µM (inactive) |
| Cc1ccc(NC(=O)COc2ccccc2/C=C2/NC(=O)N(Cc3ccc(F)cc3)C2=O)cc1 | > 40 µM (inactive) |
| COc1ccccc1C(=O)N1CCC[C@H](Cn2nnc(-c3cccnc3)n2)C1 | > 40 µM (inactive) |
| CCn1cc2c(n1)c(=O)n(Cc1ccccc1)c(=O)n2CC(=O)Nc1ccc(OC)cc1 | > 40 µM (inactive) |
| COc1cc(-c2ccccc2)c(O)c(O)c1-c1ccccc1 | 16 µM |
| Cc1ccc(C)c(S(=O)(=O)N2CCN(c3ccc4nnc(-c5ccco5)n4n3)CC2)c1 | > 40 µM (inactive) |
| O=C(CCn1c(=O)c2sccc2n(Cc2ccc([N+](=O)[O-])cc2)c1=O)NCc1ccccc1 | > 40 µM (inactive) |
| Cc1ccc(S(=O)(=O)Nc2cccc(Cl)c2)cc1NC(=O)CCC(=O)c1ccc(Cl)cc1 | > 40 µM (inactive) |
| CCOC(=O)c1cc2c(ccn2-c2ccc(F)cc2)n1CC(=O)Nc1ccc2c(c1)OCCO2 | > 40 µM (inactive) |
| COc1cccc2cc(-c3nnc(SCC(=O)c4ccc(F)cc4)n3C)oc12 | > 40 µM (inactive) |
| COc1ccc(CCN2COc3c(cc(Cl)c4cccnc34)C2)cc1OC | > 40 µM (inactive) |
| O=C(COc1ccc(Cl)cc1)Nc1noc(-c2ccccc2)n1 | 39.3 µM |
| CCc1ccccc1NC(=O)Cn1c(=O)n(CC(=O)NCc2ccccc2Cl)c(=O)c2sccc21 | > 40 µM (inactive) |
| O=C(CCc1nnc2n(Cc3ccccc3Cl)c(=O)c3ccccc3n12)NCc1ccccc1 | > 40 µM (inactive) |
| COc1cccc(C(=O)Nc2ccc(SC(C(=O)Nc3ccccc3)c3ccccc3)cc2)c1 (stereo not drawn) | > 40 µM (inactive) |
| COc1cc(OC)cc(N2C(=O)N(CC(=O)c3ccc(Br)cc3)c3ccccc3S2(=O)=O)c1 | > 40 µM (inactive) |
| O=c1cc(-c2ccc(O)c(O)c2)oc2cc(O)cc(O)c12 | 2.07 µM |

| Compound | IC50 |
| --- | --- |
| O=C(CNC(=O)c1ccc2nc(-n3cccc3)sc2c1)NCc1ccccc1 | > 40 µM (inactive) |
| O=C(Cn1ccc2ccn(Cc3ccccc3)c2c1=O)Nc1ccccc1Cl | > 40 µM (inactive) |
| COc1ccc(-c2noc([C@@H]3C[C@H](NC(=O)Nc4ccc(C)cc4)CN3C)n2)cc1 | > 40 µM (inactive) |
| CCc1noc(-c2ccn3c(CC(=O)Nc4ccccc4C)nnc3c2)n1 | 16.5 µM |
| Cc1ccc(CNCc2cc3c(-c4ccc(F)cc4)nn(-c4ccccc4)c3[nH]c2=O)cc1 | > 40 µM (inactive) |
| CCCn1cc(C(=O)N2CCC3(CC2)CC2(CO3)Nc3ccccc3-n3cccc32)c(C)n1 (stereo not drawn) | 37.2 µM |
| Cc1cc(O)c(=O)cc2c1C[C@H]1CC(C)(C)/C=C/C[C@@]3(C)Oc4cc(=O)c(O)cc(C)c4C[C@@H]3C[C@H](O)[C@]1(C)O2 | > 40 µM (inactive) |
| COC(=O)c1ccc(C(=O)Nc2cc3ccccc3cc2NC(=O)c2ccc(C(=O)OC)cc2)cc1 | > 40 µM (inactive) |
| Cc1cc(=O)n2c3c(c4c(cc13)c(CO)cc(=O)n4C)OC2 | 22.6 µM |
| CCCCCCCCCC(CCCCCCCCCC(=O)O)O[C@H]1O[C@@H](COC(C)=O)[C@H](O)[C@@H](O)[C@H]1OC(=O)CC(=O)O (stereo partly drawn) | > 40 µM (inactive) |
| O=C(Cn1c(=O)n(Cc2ccccc2)c(=O)c2ncccc21)NCc1ccccc1Cl | > 40 µM (inactive) |
| O=C(NCc1ccc(F)cc1)c1cccc(Nc2nc3ccccc3n3cnnc23)c1 | > 40 µM (inactive) |
| Cc1ccc2[nH]c(=O)c(CN(CC3COCCO3)S(=O)(=O)c3ccc(F)cc3)cc2c1 (stereo not drawn) | > 40 µM (inactive) |
| COC(=O)c1ccc2c(=O)n(-c3ccc(C)c(F)c3)c(N3CCC(C(N)=O)CC3)nc2c1 | > 40 µM (inactive) |
| Cc1cc(C)c(C#N)c(N2CCN(CCOc3ccc(Cl)cc3)CC2)n1 | > 40 µM (inactive) |
| CC1(C)Cc2c(c(-c3ccco3)nc3sc4c(SCCCc5ccccc5)ncnc4c23)CO1 | 24 µM |
| CCCCCCCC1OC(=O)Cc2cc(O)c(O)c(O)c21 (stereo not drawn) | 8.62 µM |
| COc1ccc(OC)c2c(C)cc(N3CC(C)CC(C)C3)nc12 (stereo not drawn) | > 40 µM (inactive) |
| CCc1ccc(-n2c(C)cc(/C=C3\C(=N)N4N=CSC4=NC3=O)c2C)cc1 | > 40 µM (inactive) |
| O=C(CSc1nc2ccccc2[nH]1)Nc1ccc2c(c1)OCCO2 | > 40 µM (inactive) |
| O=C(c1cccnc1)N1CCN(c2cc(-c3ccccc3)[nH]n2)CC1 | > 40 µM (inactive) |
| O=c1cc(Cc2ccccc2)nc2c(-c3ccccc3)c(COc3ccccc3)[nH]n12 | > 40 µM (inactive) |
